Calls of active or inactive are those of the source. No cut-off for these calls is given here.

Test [1] concerns Human betaherpesvirus 5. The test can be described thus: Antiviral activity against Human cytomegalovirus. The class given is functional, organism-based.
Test [2] relates to Human betaherpesvirus 5. Description: Antiviral activity against Human cytomegalovirus infected in severe combined immunodeficient mouse with human fetal tissue implanted assessed as reduction in viral replication. It is filed as functional, organism-based.
Test [3] has as its system Murid betaherpesvirus 1. The test can be described thus: Antiviral activity against Murine cytomegalovirus infected in severe combined immunodeficient mouse assessed as reduction in viral load. It is filed as functional.

What is called EC50 is the concentration at which the effect is half-maximal. Low readings indicate an effect from little substance, high ones a need for much substance. In turn, `Nc1nc2c(ncn2COC(CO)CO)c(=O)[nH]1` [GANCICLOVIR] displayed an EC50 in test [1] of 4.1 µM. In other words, the single-digit micromolar range. For `Nc1nc2c(ncn2/C=C2/CC2(CO)CO)c(=O)[nH]1` [FILOCICLOVIR], the outcome in test [2] was Active. The “fold change (FC)” value in test [3] came out at 2.
